Test results taken from patent publication US6562833B1 (priority 1998, dated 2003).

How the values were obtained:
Type in all cases: in vivo
Puccinia recondita = assay: Comparative Experiment 2 - curative activity against Puccinia recondita on wheat (wheat leaf rust); conditions: potted wheat seedlings c.v. Kanzler, aqueous 250 ppm preparation sprayed the day after inoculation, assessed after 7 days, untreated plants 100% infected
Text: (§1) The active ingredients were formulated separately or jointly as a 10% emulsion in a mixture of 70% by weight of cyclohexanone, 20% by weight of Nekanil® LN (Lutensol® AP6, wetting agent having emulsifying and dispersant action based on ethoxylated alkylphenols) and 10% by weight of Wettol® EM (nonionic emulsifier based on ethoxylated castor oil) and diluted with water to give the desired concentration.
Leaves of potted wheat seedlings c.v. “Kanzler” were dusted with spores of wheat leaf rust (Puccinia recondita). Thereafter, the pots were kept in a chamber of high atmospheric humidity (90 to 95%), at 20 to 22° C. for 24 hours. During this time, the spores germinated and the germ tubes penetrated into the leaf tissue. The next day, the infected plants were sprayed to runoff point with an aqueous 250 ppm preparation of active compound which had been made up from a stock solution consisting of 10% of active compound, 63% of cyclohexanone and 27% of emulsifier. After the spraycoating had dried on, the test plants were cultivated in a greenhouse at 20-22° C. and 65-70% relative atmospheric humidity for 7 days. The extent of the rust fungus development on the leaves was then determined.

Plasmopara viticola [1] = assay: Comparative Experiment 1 - activity against Plasmopara viticola on grapevine leaves (persistency, 500 ppm); conditions: potted grapevines c.v. Müller-Thurgau; aqueous 500 ppm preparation sprayed to runoff; inoculated 7 days after treatment; untreated plants 85% infected
Text: as §1
Leaves of potted grapevines c.v. “Müller-Thurgau” were sprayed to runoff point with an aqueous 500 ppm preparation of active compound which had been made up from a stock solution comprising 10% of active compound, 63% of cyclohexanone and 27% of emulsifier. To assess the persistency of the substances, the plants were kept for 7 days in a greenhouse after the spray-coating had dried off. Only then were the leaves inoculated with an aqueous zoospore suspension of Plasmopara viticola. The grapevines were then initially kept in a water vapor-saturated chamber at 24° C. for 48 hours and then in a greenhouse at 20-30° C. for 5 days. After this period of time, the plants were once more kept in a humid chamber for 16 hours to promote sporangiophore eruption. The extent of the infection on the undersides of the leaves was then determined visually.

Pyricularia oryzae = conditions: potted rice seedlings c.v. TaiNong 67; protective, aqueous 250 ppm preparation; inoculated the next day; assessed after 6 days; untreated plants 90% infected
Plasmopara viticola [2] = assay: Comparative Experiment 4 - activity against Plasmopara viticola on grapevine leaves (persistency, 250 ppm); conditions: potted grapevines c.v. Müller-Thurgau; aqueous 250 ppm preparation sprayed to runoff; inoculated 7 days after treatment; untreated plants 85% infected
Text: as §1
Leaves of potted grapevines c.v. “Müller-Thurgau” were sprayed to runoff point with an aqueous 250 ppm preparation of active compound which had been made up from a stock solution comprising 10% of active compound, 63% of cyclohexanone and 27% of emulsifier. To assess the persistency of the substances, the plants were kept for 7 days in a greenhouse after the spray-coating had dried off. Only then were the leaves inoculated with an aqueous zoospore suspension of Plasmopara viticola. The grapevines were then initially kept in a water vapor-saturated chamber at 24° C. for 48 hours and then in a greenhouse at 20-30° C. for 5 days. After this period of time, the plants were once more kept in a humid chamber for 16 hours to promote sporangiophore eruption. The extent of the infection on the undersides of the leaves was then determined visually.

Compound	infection (extent of the rust fungus development on the leaves) (Puccinia recondita) [%]	infection (extent of the infection on the undersides of the leaves, determined visually) (Plasmopara viticola [1]) [%]	infection (extent of the development of the disease on the leaves, determined visually) (Pyricularia oryzae) [%]	infection (extent of the infection on the undersides of the leaves, determined visually) (Plasmopara viticola [2]) [%]
Cc1cc(C#N)nc(Nc2ccccc2)n1 [active compound A]	100	50		
Cc1nc(Nc2ccccc2)nc(C(F)(F)F)c1C [I.18]			15	
CON=Cc1nc(Nc2ccccc2)nc(C)c1C [I.62, 5,6-Dimethyl-4-(N-methoxyimino)methyl-2-(N-phenylamino)pyrimidine]				10
CON=Cc1cc(C)nc(Nc2ccccc2)n1 [active compound C]				60
Cc1cc(C(F)(F)F)nc(Nc2ccccc2)n1 [active compound B]			80	
Cc1nc(Nc2ccccc2)nc(C#N)c1C [I.9, 4-Cyano-5,6-dimethyl-2-(phenylamino)pyrimidine]	30	5		
